Test results: ChEMBL document CHEMBL1201862, “PubChem BioAssay data set” (2004)
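Cells were grown in 96-well plates and exposed to each compound for 48 hours at five concentrations; endpoints were interpolated linearly between bracketing concentrations, or set to the highest concentration if not reached. Abbreviation: GI50, concentration required for 50% inhibition of growth.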 Activity calls are given as the source filed them. Cut-off read from the data, not from the text of the source: active = GI50 up to about 1.1 µM and inactive = higher. Starred links: 1 amine or outer side, 2 acyl side, 3 side chain; linkers in the order of their positions; H or OH if unused. Positions of bridges follow the written chain, without caps; N, C: chain ends. Non-standard residues stand in square brackets, D forms with d. Residues, ends and D or L forms follow the SMILES beside them. ξ: configuration not given here. *: point of attachment. γ4hArg(2R,3R-(OH)2) = N=C(N)NCCC[C@H](N[*:1])[C@@H](O)[C@@H](O)C(=O)[*:2]; Gln(3S,4R-Me2) = C[C@H]([C@H](N)C(=O)O)[C@@H](C)C(N)=O; X50 = CC(C)C[C@H](C)[C@@H](O)[C@@H](C)C(=O)*; X51 = COC(c1ccc(O)cc1)C(N[*:1])C(=O)[*:2]; NMeQ = CN[C@@H](CCC(N)=O)C(=O)O; Thr(3ξ) = CC(O)[C@H](N)C(=O)O; NMeA = CN[C@@H](C)C(=O)O

Key:
Experiment in all cases: DTP human tumour cell line panel, 48 h
[1] = tested on: SR
[2] = tested on: OVCAR-5
[3] = tested on: KM12
[4] = tested on: COLO 205
[5] = tested on: OVCAR-4
[6] = tested on: UACC-257
[7] = tested on: SK-OV-3
[8] = tested on: HT-29
[9] = tested on: SF-268
[10] = tested on: LXFL 529
[11] = tested on: HOP-92
[12] = tested on: ACHN
[13] = tested on: HOP-62
[14] = tested on: A498
[15] = tested on: KM-20L2
[16] = tested on: SK-MEL-2
[17] = tested on: SF-295
[18] = tested on: SNB-75
[19] = tested on: M14
[20] = tested on: M19-MEL
[21] = tested on: MOLT-4
[22] = tested on: RPMI-8226
[23] = tested on: DMS-114
[24] = tested on: Malme-3M
[25] = tested on: UACC-62
[26] = tested on: NCI-H522
[27] = tested on: SNB-78
[28] = tested on: OVCAR-3
[29] = tested on: 786-0
[30] = tested on: RXF 393
[31] = tested on: SNB-19
[32] = tested on: NCI-H23
[33] = tested on: UO-31
[34] = tested on: SK-MEL-28
[35] = tested on: IGROV-1
[36] = tested on: NCI-H460
[37] = tested on: HL-60
[38] = tested on: K562
[39] = tested on: U-251
[40] = tested on: XF498
[41] = tested on: A549
[42] = tested on: OVCAR-8
[43] = tested on: HCT-116
[44] = tested on: CCRF-CEM
[45] = tested on: EKVX
[46] = tested on: TK-10
[47] = tested on: SK-MEL-5
[48] = tested on: SW-620
[49] = tested on: SF-539
[50] = tested on: SN12C
[51] = tested on: LOX IMVI
[52] = tested on: CAKI-1
[53] = tested on: HCC 2998
[54] = tested on: DLD-1
[55] = tested on: HCT-15
[56] = tested on: NCI-H226
[57] = tested on: DMS-273
[58] = tested on: PC-3
[59] = tested on: NCI/ADR-RES
[60] = tested on: DU-145
[61] = tested on: T47D
[62] = tested on: MCF7
[63] = tested on: MDA-N
[64] = tested on: MDA-MB-231
[65] = tested on: MDA-MB-435
[66] = tested on: Hs-578T
[67] = tested on: BT-549

COc1ccc2c(c1)CC[C@@H]1C2CC[C@]2(C)C(=O)N(CCN3CCCC3)C(=O)CC12 (some centres not stated)
GI50 [1]: 31 µM (inactive)
GI50 [2]: 26.1 µM (inactive)
GI50 [3]: 29.4 µM (inactive)
GI50 [4]: 17.7 µM (inactive)
GI50 [5]: 84.3 µM (inactive)
GI50 [6]: 18.5 µM (inactive)
GI50 [7]: 66.7 µM (inactive)
GI50 [8]: 17.4 µM (inactive)
GI50 [9]: 35.1 µM (inactive)
GI50 [10]: 26.4 µM (inactive)
GI50 [11]: 17.8 µM (inactive)
GI50 [12]: 59.3 µM (inactive)
GI50 [13]: 28.3 µM (inactive)
GI50 [14]: 27.9 µM (inactive)
GI50 [15]: 21.4 µM (inactive)
GI50 [16]: 17.8 µM (inactive)
GI50 [17]: 19.1 µM (inactive)
GI50 [18]: 15.1 µM (inactive)
GI50 [19]: 15.8 µM (inactive)
GI50 [20]: 18.2 µM (inactive)
GI50 [21]: 17.3 µM (inactive)
GI50 [22]: 15.3 µM (inactive)
GI50 [23]: 26.5 µM (inactive)
GI50 [24]: 17 µM (inactive)
GI50 [25]: 18.2 µM (inactive)
GI50 [26]: 23.1 µM (inactive)
GI50 [27]: 31.4 µM (inactive)
GI50 [28]: 27.5 µM (inactive)
GI50 [29]: 18.3 µM (inactive)
GI50 [30]: 34 µM (inactive)
GI50 [31]: > 100 µM (inactive)
GI50 [32]: 49.7 µM (inactive)
GI50 [33]: 17.9 µM (inactive)
GI50 [34]: 19.5 µM (inactive)
GI50 [35]: 44.7 µM (inactive)
GI50 [36]: 36.6 µM (inactive)
GI50 [37]: 18.7 µM (inactive)
GI50 [38]: 20.4 µM (inactive)
GI50 [39]: 43.9 µM (inactive)

COc1ccccc1N1C(Cl)C(=O)C1c1c[nH]c2ccccc12 (configuration not stated)
GI50 [1]: > 100 µM (inactive)
GI50 [2]: 13.2 µM (inactive)
GI50 [3]: > 100 µM (inactive)
GI50 [4]: > 100 µM (inactive)
GI50 [40]: > 100 µM (inactive)
GI50 [5]: > 100 µM (inactive)
GI50 [6]: > 100 µM (inactive)
GI50 [41]: > 100 µM (inactive)
GI50 [7]: > 100 µM (inactive)
GI50 [8]: > 100 µM (inactive)
GI50 [42]: > 100 µM (inactive)
GI50 [43]: > 100 µM (inactive)
GI50 [9]: > 100 µM (inactive)
GI50 [10]: > 100 µM (inactive)
GI50 [11]: > 100 µM (inactive)
GI50 [13]: > 100 µM (inactive)
GI50 [15]: > 100 µM (inactive)
GI50 [16]: > 100 µM (inactive)
GI50 [44]: > 100 µM (inactive)
GI50 [17]: > 100 µM (inactive)
GI50 [18]: > 100 µM (inactive)
GI50 [45]: > 100 µM (inactive)
GI50 [46]: > 100 µM (inactive)
GI50 [19]: > 100 µM (inactive)
GI50 [47]: > 100 µM (inactive)
GI50 [20]: > 100 µM (inactive)
GI50 [48]: > 100 µM (inactive)
GI50 [21]: > 100 µM (inactive)
GI50 [22]: > 100 µM (inactive)
GI50 [49]: > 100 µM (inactive)
GI50 [23]: > 100 µM (inactive)
GI50 [25]: > 100 µM (inactive)
GI50 [26]: > 100 µM (inactive)
GI50 [28]: > 100 µM (inactive)
GI50 [30]: > 100 µM (inactive)
GI50 [31]: 26.7 µM (inactive)
GI50 [32]: > 100 µM (inactive)
GI50 [33]: > 100 µM (inactive)
GI50 [34]: > 100 µM (inactive)
GI50 [35]: > 100 µM (inactive)
GI50 [36]: > 100 µM (inactive)
GI50 [37]: > 100 µM (inactive)
GI50 [50]: > 100 µM (inactive)
GI50 [38]: > 100 µM (inactive)
GI50 [39]: > 100 µM (inactive)

Nc1ncnc2c1ncn2CCOC(c1ccccc1)P(=O)(O)O (configuration not stated)
GI50 [1]: > 100 µM (inactive)
GI50 [2]: > 100 µM (inactive)
GI50 [3]: > 100 µM (inactive)
GI50 [4]: > 100 µM (inactive)
GI50 [6]: > 100 µM (inactive)
GI50 [41]: > 100 µM (inactive)
GI50 [51]: > 100 µM (inactive)
GI50 [52]: > 100 µM (inactive)
GI50 [7]: > 100 µM (inactive)
GI50 [8]: > 100 µM (inactive)
GI50 [42]: > 100 µM (inactive)
GI50 [43]: > 100 µM (inactive)
GI50 [9]: > 100 µM (inactive)
GI50 [53]: > 100 µM (inactive)
GI50 [10]: > 100 µM (inactive)
GI50 [12]: > 100 µM (inactive)
GI50 [14]: > 100 µM (inactive)
GI50 [54]: > 100 µM (inactive)
GI50 [15]: > 100 µM (inactive)
GI50 [16]: > 100 µM (inactive)
GI50 [44]: > 100 µM (inactive)
GI50 [17]: > 100 µM (inactive)
GI50 [18]: > 100 µM (inactive)
GI50 [45]: > 100 µM (inactive)
GI50 [46]: > 100 µM (inactive)
GI50 [55]: > 100 µM
GI50 [47]: > 100 µM (inactive)
GI50 [56]: > 100 µM (inactive)
GI50 [20]: > 100 µM (inactive)
GI50 [48]: > 100 µM (inactive)
GI50 [21]: > 100 µM (inactive)
GI50 [49]: > 100 µM (inactive)
GI50 [24]: > 100 µM (inactive)
GI50 [25]: > 100 µM (inactive)
GI50 [26]: > 100 µM (inactive)
GI50 [27]: > 100 µM (inactive)
GI50 [57]: > 100 µM (inactive)
GI50 [28]: > 100 µM (inactive)
GI50 [29]: > 100 µM (inactive)
GI50 [30]: > 100 µM (inactive)
GI50 [31]: > 100 µM (inactive)
GI50 [32]: > 100 µM (inactive)
GI50 [33]: > 100 µM (inactive)
GI50 [34]: > 100 µM (inactive)
GI50 [35]: > 100 µM (inactive)
GI50 [36]: > 100 µM (inactive)
GI50 [37]: > 100 µM (inactive)
GI50 [50]: > 100 µM (inactive)
GI50 [39]: > 100 µM (inactive)

COC(c1ccc(O)cc1)C1NC(=O)[C@H](CCC(N)=O)N(C)C(=O)[C@H](CC(C)C)NC(=O)[C@@H](CCCN=C(N)N)NC(=O)[C@H](C(C)O)NC(=O)[C@@H](NC(=O)[C@@H](NC(=O)[C@H](O)[C@H](O)[C@H](CCCN=C(N)N)NC(=O)[C@H](C)NC(=O)[C@H](C)[C@H](O)[C@@H](C)CC(C)C)[C@@H](C)[C@@H](C)C(N)=O)[C@@H](C)OC(=O)[C@H](C)N(C)C1=O (stereo partly drawn) (X50-A[γ4hArg(2R,3R-(OH)2)][Gln(3S,4R-Me2)]T[Thr(3ξ)][dR]L[NMeQ][X51][NMeA]; ester 4-C)
GI50 [1]: 0.143 µM (active)
GI50 [2]: 0.167 µM (active)
GI50 [3]: 0.121 µM (active)
GI50 [4]: 0.0881 µM (active)
GI50 [5]: 0.134 µM (active)
GI50 [6]: 0.113 µM (active)
GI50 [41]: 0.141 µM (active)
GI50 [51]: 0.482 µM (active)
GI50 [52]: 0.102 µM (active)
GI50 [7]: 0.189 µM (active)
GI50 [8]: 0.0904 µM (active)
GI50 [42]: 0.0889 µM (active)
GI50 [43]: 0.281 µM (active)
GI50 [9]: 0.0525 µM (active)
GI50 [53]: 0.0877 µM (active)
GI50 [11]: 0.138 µM (active)
GI50 [58]: 0.187 µM (active)
GI50 [12]: 0.115 µM (active)
GI50 [59]: 0.222 µM (active)
GI50 [13]: 0.15 µM (active)
GI50 [14]: 0.641 µM (active)
GI50 [16]: 0.247 µM (active)
GI50 [44]: 0.151 µM (active)
GI50 [17]: 0.0925 µM (active)
GI50 [18]: 0.0902 µM (active)
GI50 [45]: 0.0995 µM (active)
GI50 [46]: 0.146 µM (active)
GI50 [19]: 0.115 µM (active)
GI50 [55]: 0.133 µM
GI50 [47]: 0.0682 µM (active)
GI50 [56]: 0.212 µM (active)
GI50 [60]: 0.0764 µM (active)
GI50 [61]: 0.138 µM (active)
GI50 [48]: 0.137 µM (active)
GI50 [21]: 0.139 µM (active)
GI50 [22]: 0.106 µM (active)
GI50 [49]: 0.0859 µM (active)
GI50 [62]: 0.14 µM (active)
GI50 [24]: 0.084 µM (active)
GI50 [63]: 0.135 µM (active)
GI50 [25]: 0.126 µM (active)
GI50 [26]: 0.0598 µM (active)
GI50 [28]: 0.083 µM (active)
GI50 [29]: 0.204 µM (active)
GI50 [30]: 0.267 µM (active)
GI50 [64]: 0.106 µM (active)
GI50 [31]: 0.0929 µM (active)
GI50 [32]: 0.0944 µM (active)
GI50 [33]: 0.249 µM (active)
GI50 [65]: 0.145 µM (active)
GI50 [34]: 0.223 µM (active)
GI50 [66]: 0.0405 µM (active)
GI50 [35]: 0.0746 µM (active)
GI50 [36]: 0.0604 µM (active)
GI50 [37]: 0.167 µM (active)
GI50 [50]: 0.149 µM (active)
GI50 [67]: 0.242 µM (active)
GI50 [38]: 0.0847 µM (active)
GI50 [39]: 0.121 µM (active)
